# In PubChem BioAssay AID179 (DTP/NCI, 2004):
# Activity calls are given as the source filed them.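 How the source made its calls: active means compounds giving half or more protection of infected cells from virus-caused growth loss, again on retest; inactive means the rest.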 Where a SMILES comes first, the peptide text is derived from it. [ ]: non-standard residue; d: D form. The star is where a group is joined. hSer = N[CH](CCO)C(=O)O; Boc = CC(C)(C)OC(=O)*
# Test system: CEM cells HIV-1 protection, formazan growth assay
# Assay: NCI AIDS Antiviral Assay
# Settings: for IC50: measured here: growth of uninfected CEM cells
# In short: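 Steps: treat uninfected and HIV-1-infected human CEM cells at five drug levels; quantify growth by soluble formazan; retest any compound reaching 50% protection; classify actives from the retest.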
Compound,EC50 [µM],IC50 [µM],outcome
CC1=NN(C(=O)CC(=O)Nc2ccccc2C)C(=O)C1N=Nc1ccc(S(=O)(=O)c2ccc(N=NC3C(=O)N(C(=O)CC(=O)Nc4ccccc4C)N=C3C)cc2)cc1 (configuration not stated),> 50.1,> 50.1,–
NC(=S)N/N=C1/CCCC2CCCC[C@@H]12 (some centres not stated),> 200,> 200,–
O=P1(O)C=CC2(CCCC2)O1,> 200,> 200,–
CC1=C(C(=O)NCc2ccccc2)C(c2ccccc2O)C(C(=O)NCc2ccccc2)=C(C)N1,> 200,33.9,–
Cc1ccc(S(=O)(=O)OC2C(C)OCOC3COCOC32)cc1 (configuration not stated),> 145,> 145,–
S=c1[nH][nH]c(=S)c2[nH]cnc12,> 141,> 141,–
Nc1o[nH]c(=O)c1C1CCCCC1,> 200,> 200,–
CC(O)(c1ccccc1)c1nccc2ccccc12 (configuration not stated),> 200,77.6,–
O=[N+]([O-])c1cc(Cl)ccc1S(=O)(=O)c1ccc(Cl)cc1[N+](=O)[O-],–,–,inactive
S=C1C(=Nc2ccccc2)N(c2ccccc2)/C(=N\c2cccc[n+]2Cc2ccccc2)N1c1ccccc1,15.5,27.5,–
C/C=C1\CC(C(=O)OCC)CCCCCCC1=O (configuration not stated),> 200,17.4,–
Cc1ccsc1/C=N/Nc1nc2ccccc2s1,> 200,105,–
C1=CC2/C=C\c3[nH]c4ccccc4c3CCN(C1)C2 (configuration not stated),> 162,75.9,–
O=C(Cc1ccccc1)c1ccc(O)cc1O,> 200,85.1,–
O=[N+]([O-])c1cc(I)cc(/C=N/NS(=O)(=O)c2ccc(Cl)cc2)c1O,> 372,66.1,–
O=c1[nH]c2cc([N+](=O)[O-])ccc2nc1/C(=N\Nc1ccccc1)C(O)c1ccc2c(c1)OCO2 (configuration not stated),> 447,214,–
CN1CC2(CO)C(c3ccccn3)N(C)C(c3ccccn3)C(CO)(C1)C2O (configuration not stated),> 115,> 115,–
CCN(CC)C(=S)SCn1nc(Cl)c2ccc([N+](=O)[O-])cc21,> 69.2,40.7,–
COC(=O)/C(C#N)=C(\Nc1ccccc1)N1CCCCC1,> 200,97.7,–
CCN(CCCCOC(=O)c1ccc(OC)c(OC)c1)C(C)Cc1ccc(OC)cc1 (configuration not stated),> 200,102,–
O=S(=O)([O-])[O-].O=c1[nH]cnc2[nH]ncc12.O=c1[nH]cnc2[nH]ncc12.[Zn+2],> 209,155,–
COc1cc2c(cc1OC)C1CCc3ccccc3CN1CC2 (configuration not stated),> 200,170,–

Compound,EC50 [µM],IC50 [µM],outcome
c1ccc(-c2nnc(CCCCCCCCc3nnc(-c4ccccc4)o3)o2)cc1,> 200,158,–
Cc1cc(NC2=NCCO2)c2c(c1C)CCCC2,> 200,29.5,–
Nn1c(-c2cccc(Cl)c2)nc2ccccc2c1=O,–,–,inactive
COc1ccc([C@@H]2CC(=O)NCCCCNCCCN2)cc1,> 200,> 200,–
C/C(=C\C=C\C(C)C)C1CCC(C)(NC=O)CC1 (configuration not stated),–,–,inactive
COc1ccc(Nc2nc3c(s2)c(C)c(O)c2ccccc23)cc1,> 2.88,0.851,–
N#Cc1ncoc1N,> 200,> 200,–
O=C1OCC2C1C1c3ccccc3C(O)c3ccccc3C21 (configuration not stated),–,–,inactive
COC(=O)[C@@H]1N2C(=S)N(c3ccccc3)C(=O)[C@H]2SC1(C)C,> 200,> 200,–
Cc1c(C)c2c(c(N)c1C#N)C(=O)N(Cc1ccc(S(N)(=O)=O)cc1)C2=O,69.2,> 200,–
Nc1nc(F)nc2c1ncn2CC(O)CO (configuration not stated),> 1100,1.78,–
O=c1nc2sc3ccc4ccccc4c3n2nc1-c1ccccc1,> 49,> 49,–
O=C1CN(CCN2CCOCC2)CC(=O)N2CCCCN12,> 200,> 200,–
O=C(NCCCl)c1ccc(Cl)c(Cl)c1,–,–,inactive
Cc1cc(S(=O)(=O)Nc2nc(N)nc(N3CCOCC3)n2)c(S)cc1Cl,61.7,> 200,–
O=C(OC1CC(OC(=O)c2cc(O)c(O)c(O)c2)(C(=O)O)C[C@H](OC(=O)c2cc(O)c(O)c(O)c2)C1OC(=O)c1cc(O)c(O)c(O)c1)c1cc(O)c(O)c(O)c1 (some centres not stated),–,–,inactive
CC1C2(C)OC(=N)C(C#N)(C(c3ccccc3)O2)C1(C#N)C#N (configuration not stated),> 200,10.7,–
CC(C)OP(=O)(OC(C)C)/C(C#N)=C/c1c[nH]c2ccccc12,> 200,> 200,–
COc1cc(N=Nc2ccccc2)cc(/C=N/NC(N)=S)c1O,–,–,inactive
CC(C)=CCC/C(C)=C/CCC1(C)C=Cc2c(c3ccccc3oc2=O)O1 (configuration not stated),–,–,inactive
NCCS/C=C\C(=O)OCc1ccc(Br)cc1,> 708,64.6,–
COc1ccc(C2Oc3c(cc(O)c(OC)c3C)[C@@H]2C)cc1OC (some centres not stated),> 79.4,47.9,–

Compound,EC50 [µM],IC50 [µM],outcome
CC(=O)NNC(=S)/N=C/C(C(=O)Nc1ccccc1)=C(/C)O,> 200,> 200,–
CCN(CC)c1ccc(N=Nc2ccc(N=Nc3c(S(=O)(=O)O)cc4ccc(N)cc4c3O)c(OCCO)c2)cc1,> 14.8,> 14.8,–
Cn1c(=O)c2c(nc(N/N=c3\scc(-c4ccc(Cl)cc4)n3Cc3ccccc3)n2C)n(C)c1=O,> 200,10.7,–
COc1cc2c(cc1OC)-c1cc3ccccc3c(=O)n1CC2,> 200,28.2,–
Cn1c(=O)c2c(nc(C[N+]3([O-])CCOCC3)n2C)n(C)c1=O,> 83.2,> 83.2,–
COCCC(NC(=O)C(CC(C)C)NC(=O)OC(C)(C)C)C(N)=O (stereo not drawn) (Boc-Leu-[hSer](Me)-NH2; configuration not given here),> 200,> 200,–
OC(C1CCCC1=N/N=C1/CCCC1C(O)(C(F)(F)Cl)C(F)(F)Cl)(C(F)(F)Cl)C(F)(F)Cl (configuration not stated),> 50.1,> 50.1,–
O=C(CC(O)(C(F)(F)Cl)C(F)(F)Cl)CC(O)(C(F)(F)Cl)C(F)(F)Cl,–,–,inactive
CC(=O)CC(O)(C(F)(F)Cl)C(F)(F)Cl,–,–,inactive
Cc1nn(-c2ccccc2)c(=O)n2c1nc1ccccc12,> 93.3,58.9,–
CC(C)=CCN1CC(C)Cn2c(=S)[nH]c3cccc1c32 (configuration not stated),1.17,> 100,–
CCOC(=O)c1nc2cc(N3CCOCC3)c(F)cc2[nH]c1=O,> 200,141,–
O=S(=O)(F)c1cccc(Cl)c1C[P+](c1ccccc1)(c1ccccc1)c1ccccc1,> 200,25.7,–
Cc1cc2c(c3oc(C4(C)OC4C4OC4C)cc(=O)c13)C(=O)c1c(O)c(C3CC(C)(N(C)C)C(O)C(C)O3)cc(C3CC(N(C)C)C(O)C(C)O3)c1C2=O (configuration not stated),> 0.002,9.55e-05,–
O=C1CCCC(=O)NNC(=O)Nc2ccc(cc2)Cc2ccc(cc2)NC(=O)NN1,> 30.9,> 30.9,–
O=C1c2cn[nH]c2C(c2ccccc2)N1c1ccccc1 (configuration not stated),–,–,inactive
Cc1ccc(S(=O)(=O)Nn2c3c(cc(C#N)c2=O)CCC3)cc1,> 200,> 200,–
COc1ccccc1NC(=O)C(C#N)=C(SC)SC,> 200,8.91,–
S=c1[nH]c(=S)c2nc(Nc3ccccc3)sc2[nH]1,> 617,> 617,–
C=C=C(CC(CC=C(C)C)(C(C)=O)C(=O)OC(C)(C)C)S(=O)(=O)c1ccccc1 (configuration not stated),> 32.4,6.17,–
Cc1cc2oc(=N)c(C#N)c(C)c2cc1C,> 200,43.7,–
CN1C(=S)Nc2ncn(C)c2S1(=O)=O,> 81.3,> 81.3,–

Compound,EC50 [µM],IC50 [µM],outcome
C/C(=C\c1ccc(F)cc1)C(=O)O,> 275,> 275,–
COC(=O)c1ccc(CS(=O)(=O)c2ccccc2)cc1,> 12.9,> 12.9,–
CC(C)N(O)C(=N)c1ccccc1,–,–,inactive
Nc1nnc2nc(CC(=O)c3cccc([N+](=O)[O-])c3)/c(=C/C(=O)c3cccc([N+](=O)[O-])c3)n12,> 16.2,> 16.2,–
COc1ccccc1C(=O)N(C)c1ccc(Cl)c(C(=O)OC(C)C)c1,–,–,inactive
CC1(C)CC(=O)C2C(C1)Nc1ccccc1NC2c1cccc([N+](=O)[O-])c1 (configuration not stated),> 200,93.3,–
CC1(C)CCc2cc3c(O)c(-c4ccccc4)c(=O)oc3cc2O1,> 200,77.6,–
O=C1CSC2=NC3=C(CSC/C3=C\c3ccc(Cl)cc3)C(c3ccc(Cl)cc3)N12 (configuration not stated),> 200,9.77,–
CCOC(=O)/C(N=O)=C(/O)CC(C)C,> 200,> 200,–
CN1C2CCC1CC(OC(=O)C(CO)c1ccccc1)C2 (configuration not stated),> 200,> 200,–
COC(=O)C(=Cc1cc(OC)c(OC)c(OC)c1-c1cc2c(cc1C1(C)OCCS1)OCO2)C(=O)OC (configuration not stated),> 18.6,15.5,–
CCC1(c2ccc(OC)c(OC)c2)CCN(S(=O)(=O)c2ccc(C)cc2)C1 (configuration not stated),> 200,> 200,–
N#CC(C(=O)/C(=N/NC(=O)c1ccccc1O)C(C#N)c1ccccc1)c1ccccc1 (configuration not stated),> 589,10.7,–
COc1cccc(C2C(C(=O)Nc3cc(=O)n(C)c(=O)n3C)=C(C)NC(C)=C2C(=O)Nc2cc(=O)n(C)c(=O)n2C)c1O,> 219,74.1,–
CCCCCCCCCCCCCCCCCC(=O)OCC(CO)OC(=O)CCCCCCCCCCCCCCCCC (configuration not stated),–,–,inactive
CCOP(N)(=O)c1ccccc1 (configuration not stated),> 200,> 200,–
CCN(CC)CCCC(C)Nc1c(Sc2cnc3cc(Cl)ccc3c2NC(C)CCCN(CC)CC)cnc2cc(Cl)ccc12 (configuration not stated),> 309,1.7,–
O=[N+]([O-])c1ccc(-c2ccc(C3=Nn4c(nnc4-c4ccc(Cl)cc4)SC3)o2)cc1,> 1.74,> 1.74,–
Cc1cc2nc3[nH]c4ccccc4c3nc2cc1C,> 20.9,> 20.9,–
NC(=O)C#CC#CC#CCO,> 891,0.479,–
CCCC[P+](CCCC)(CCCC)C(C(=O)OC)C(C(=O)OC)=C1SC(C(=O)OC)=C(C(=O)OC)S1 (configuration not stated),> 200,> 200,–
NC(=Nc1ccc(S(=O)(=O)Nc2cnc3ccccc3n2)cc1)/N=C(/N)Nc1ccc(Br)cc1,> 87.1,> 87.1,–
